Experimental data: PMC11172314, “Towards Enhanced Tunability of Aqueous Biphasic Systems: Furthering the Grasp of Fluorinated Ionic Liquids in the Purification of Proteins” (International Journal of Molecular Sciences, 2024)

Experiments:
Set-up in all cases: species or system chicken
[1] = target: T1, FITC-Lys (lysozyme) (Gallus gallus, UniProt P00698); experiment: Microscale thermophoresis (MST) binding of ABS phase-forming components to FITC-labeled lysozyme; details: FITC-Lys 0.41 μM, 25 °C; max. conc. (first capillary) in monomer range: below 1st CAC for FILs, ]0, 100] mM for non-aggregating ligands
T1 construct: Lyophilized lysozyme from chicken egg white, ≥90% purity; purchased Millipore (Darmstadt, Germany); host or cells: chicken egg white (natural source)
T1 sequence (P00698 19-147): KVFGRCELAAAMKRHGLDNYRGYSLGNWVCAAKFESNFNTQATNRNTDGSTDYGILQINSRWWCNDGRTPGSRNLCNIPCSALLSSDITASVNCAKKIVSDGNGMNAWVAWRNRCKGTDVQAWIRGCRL
Description: Usually, in the labeling process, the position of dye is statistically distributed, and one amine per protein is labeled. […] The four ABS phase-forming components, [ N1112(OH) ][H2PO4] […] (FILs), and [C4C1Im][CF3SO3] […] In each run of MST, a maximum concentration of ligand was selected and consecutively diluted in sixteen capillaries.
Binding studies were conducted through microscale thermophoresis measurements of dye-labeled lysozyme. […] MST tests were conducted in a monolith NT.115 (blue/red) in accordance with the Nano Temper Technologies methodology. Medium MST power and 20% LED power (nano-blue) were set as the instrument’s default settings. For each and every MST measurement, PBS buffer was used. […] For each ligand, a series of 16 1:1 dilutions was prepared using the same buffer, varying the starting ligand concentration from 15 to 400 mM. MST traces were recorded using the standard parameters: 5 s MST power off, 30 s MST power on, and 5 s MST power off. Three independently conducted pipetted experiments’ data were examined using NanoTemper Technologies’ MO. Affinity Analysis program, version 2.3.

[2] = target: T2, lysozyme (Lys) (Gallus gallus, UniProt P00698); experiment: DSC thermal stability (Tm, ΔH) of lysozyme in water, component solutions and ABS phases; details: 1.0 mg/mL Lys
T2 construct: Lyophilized lysozyme from chicken egg white, ≥90% purity; purchased Millipore (Darmstadt, Germany); host or cells: chicken egg white (natural source)
T2 sequence (P00698 19-147): as above
From the text: Differential scanning calorimetry (DSC) measurements (Section 3) were used to determine the melting temperature ( Tm ) and enthalpy ( Δ H) of lysozyme, at which both the folded and unfolded states coexist at equilibrium. DSC outputs, thermal transitions at the nanoscale level, allow to analyze alterations on proteins structure and stability, providing sharp perceptions of the factors affecting stability, as well as of the folding and unfolding processes. […] (DSC curve depicted in Figure S16 of Supplementary Materials).
FIL (BP#8, BP#10, BP#11, and BP#12). […] For the system based on [C4C1Im][CF3SO3]
The thermal stability of lysozyme was analyzed in water, ABS phase-forming compounds aqueous solutions, and partition ABS phases. […] Partition lysozyme on each phase from the prepared biphasic points as well as recovered protein from the FIL-rich phase were also addressed for a selection of studied systems listed in Table 1. We acquired thermograms using a TA^TM Nano DSC from TA Instruments. All scans were conducted in a 300 μ L capillary cell through a temperature ramp from 20 to 90 °C at a heating rate of 1 °C/min and 3 atm pressure. All samples were degassed for 7 min at 20 °C, with the exception of FIL-containing samples owing to their surfactant properties. After subtracting the polynomial fit baselines, raw thermogram curve data were fitted with the TwoStateScaled model using NanoAnalyze TA Instruments software, version 3.12, to determine the protein thermal transition temperatures in each sample. During nanoDSC scans, Δ H and Δ S were obtained and utilized to determine Δ G ( Δ G = Δ H − T Δ S).

[3] = target: T2, lysozyme (Lys); experiment: Intrinsic (tryptophan) fluorescence of lysozyme; details: 0.2 mg/mL Lys, excitation 295 nm, component 0.1–800 mM, 25 °C
From the text: (FIL), [C4C1Im][CF3SO3] (mere fluoro-containing IL), and [ N1112(OH) ][H2PO4] (globular protein stabilizer). […] Even though large changes in protein conformation can modify the intensity of tyrosine and phenylalanine fluorescence signals, their low extinction coefficients and quantum yields, as well as their relative lower sensitivity to environmental changes, make them a less appealing candidate. Tryptophan is frequently found concealed in the hydrophobic core of proteins due to its aromatic nature. […] The tryptophan release energy is particularly sensitive to the polarity (and dynamics) of the environment because the excited-state dipole moment is quite large. Reactions to denaturation, substrate binding, subunit association, and conformational transitions create variations in the tryptophan emission spectra. The spectrum shift generally known as blue shift, a shift of the maximum emission towards smaller wavelengths, denotes that the aromatic residue is buried in the native structure of the protein [67]. […] Furthermore, the amount of exposure of the fluorophores to the solvent is associated with the increase or decrease in the intensity of the emission spectrum. […] [C4C1Im][CF3SO3] and [ N1112(OH) ][H2PO4] […] Variations in lysozyme spectra are caused by ligand-induced changes in the microenvironment of tryptophan residues, either by shifting the maximum peak wavelength (blue or red shift) or by altering peak intensities. These changes can be used as a measure of the effect of the ABS phase-forming components on protein folding and unfolding.
Intrinsic fluorescence spectroscopy measurements of lysozyme’s tryptophan residues were carried out on a Spex Horiba Jobyin Yvon spectrofluorometer (HORIBA Jobin Yvon, France) using a 10 mm path length quartz cuvette. […] The excitation and emission slit widths of 2 nm were used for all the measurements. Maximum fluorescence values were attained as the average of three measurements.

[4] = target: T2, lysozyme (Lys); experiment: Turbidimetry (transmittance) of lysozyme solutions; details: 0.2 mg/mL Lys, IL 0.1–120 mM, 25 °C
From the text: Monitoring the changes in turbidity offers an insight into the protein–ionic liquid aqueous solution interactions, which allows for the assessment of the ionic liquid functionalization of the fluorinated IL vs. the mere fluoro-contaning IL ([C2C1Im][C4F9SO3] vs. [C4C1Im][CF3SO3]). […] In opposition, [C2C1Im][C4F9SO3] […] The results of Rather et al. also confirmed the significant composition and concentration dependence of the lysozyme–surfactant IL interactions, mainly in the CAC concentration regime. Additionally, an increase in turbidity is observed for both [C4C1Im][CF3SO3] and [C2C1Im][C4F9SO3] at concentrations below the first CAC of the FIL (only monomers exist in solution for both ionic liquids) in comparison with lysozyme in water (snapshots in Figure 7A,B). […]
Both turbidimetry and UV-Vis absorbance assays were carried out at 25 °C on a double-beam UV6300PL UV-Vis spectrophotometer (VWR, Leuven, Belgium) with a pair of 10 mm path length quartz cuvettes of 400 µL sample volume. […] For absorbance measurements, all spectra were acquired with 190 to 400 nm wavelength range. […] Aqueous solutions of [C4C1Im][CF3SO3] and [C2C1Im][C4F9SO3] were analyzed with concentrations varying from 0.1 to 120 mM.

With CCCCn1cc[n+](C)c1.O=S(=O)([O-])C(F)(F)F [[C4C1Im][CF3SO3]] the Kd [1] was “no binding detected”, the “Lys Tm” value ([2]; 0.1 mM component in water) was 74.50 °C and the “Lys ∆H” value ([2]; 0.1 mM component in water) was 105.5 kcal/mol. For the same compound, the “Lys Tm” value ([2]; 1 mM component in water) was 75.54 °C, the “Lys ∆H” value ([2]; 1 mM component in water) was 104.7 kcal/mol and the “Lys Tm” value ([2]; 5 mM component in water) was 74.64 °C. For the same compound, the “Lys ∆H” value ([2]; 5 mM component in water) was 96.7 kcal/mol, the “Lys Tm” value ([2]; 10 mM component in water) was 74.16 °C and the “Lys ∆H” value ([2]; 10 mM component in water) was 94.55 kcal/mol. The “Lys fluorescence emission intensity with increasing component concentration” value [3] was “increase in Lys fluorescence emission intensity”, the “Lys maximum emission wavelength with increasing component concentration” value [3] was “red shift from 334 nm to 368 nm” and the “Turbidity (transmittance) of Lys solution with increasing IL concentration” value [4] was “steady turbidity profile”.
